Test results taken from ChEMBL document CHEMBL5649166, “RIP3 induces apoptosis independent of pronecrotic kinase activity” (Mol Cell, 2014).

Key:
[1] = molecular target: T1, Discoidin domain-containing receptor 2 (Homo sapiens) (UniProt Q16832); assay: Inhibition of human DDR2 using KKSRGDYMTMQIG as substrate at 1 uM in presence of 32P-ATP by Hotspot assay relative to control; values are per cent of control
T1 sequence (whole entry): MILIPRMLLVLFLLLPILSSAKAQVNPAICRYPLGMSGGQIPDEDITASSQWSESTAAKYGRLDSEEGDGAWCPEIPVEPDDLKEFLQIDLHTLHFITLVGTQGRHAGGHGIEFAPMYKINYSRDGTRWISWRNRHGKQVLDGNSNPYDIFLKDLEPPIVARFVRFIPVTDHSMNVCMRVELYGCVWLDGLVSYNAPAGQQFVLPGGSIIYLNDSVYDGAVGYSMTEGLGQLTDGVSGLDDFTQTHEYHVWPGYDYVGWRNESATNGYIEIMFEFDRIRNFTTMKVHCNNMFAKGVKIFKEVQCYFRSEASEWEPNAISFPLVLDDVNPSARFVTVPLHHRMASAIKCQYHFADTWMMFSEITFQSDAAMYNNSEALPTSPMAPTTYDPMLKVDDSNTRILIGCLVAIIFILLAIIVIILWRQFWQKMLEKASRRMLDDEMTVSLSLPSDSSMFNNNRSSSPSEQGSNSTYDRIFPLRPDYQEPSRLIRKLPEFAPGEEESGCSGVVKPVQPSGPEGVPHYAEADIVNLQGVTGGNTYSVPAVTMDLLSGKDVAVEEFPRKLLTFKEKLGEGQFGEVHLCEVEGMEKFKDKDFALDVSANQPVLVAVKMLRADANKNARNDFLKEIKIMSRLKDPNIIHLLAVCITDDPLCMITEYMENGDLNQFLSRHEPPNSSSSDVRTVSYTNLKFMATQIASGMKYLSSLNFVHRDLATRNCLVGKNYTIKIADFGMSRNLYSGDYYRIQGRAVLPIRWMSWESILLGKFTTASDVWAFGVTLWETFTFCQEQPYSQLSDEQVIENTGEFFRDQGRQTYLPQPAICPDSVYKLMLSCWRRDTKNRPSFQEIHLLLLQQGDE

[2] = molecular target: Myosin light chain kinase 2, skeletal/cardiac muscle (Homo sapiens) (UniProt Q9H1R3); assay: Residual activity of human MLCK2/MYLK2 using KKLNRTLSFAEPG as substrate at 1 uM in presence of 32P-ATP by Hotspot assay relative to control
[3] = molecular target: Serine/threonine-protein kinase WNK3 (Homo sapiens) (UniProt Q9BYP7); assay: Inhibition of human WNK3 using myelin basic protein as substrate at 1 uM in presence of 32P-ATP by Hotspot assay relative to control; values are per cent of control
[4] = molecular target: Mitogen-activated protein kinase kinase kinase 14 (Homo sapiens) (UniProt Q99558); assay: Inhibition of human NIK/MAP3K14 using at 1 uM in presence of 32P-ATP by Hotspot assay relative to control; values are per cent of control
[5] = molecular target: Receptor tyrosine-protein kinase erbB-2 (Homo sapiens) (UniProt P04626); assay: Inhibition of human ERBB2/HER2 using poly[Glu:Tyr] (4:1) as substrate at 1 uM in presence of 32P-ATP by Hotspot assay relative to control; values are per cent of control
[6] = molecular target: T2, Serine/threonine-protein kinase Sgk3 (Homo sapiens) (UniProt Q96BR1); assay: Inhibition of human SGK3/SGKL using KGSGSGRPRTSSFAEG as substrate at 1 uM in presence of 32P-ATP by Hotspot assay relative to control; values are per cent of control
T2 sequence (whole entry): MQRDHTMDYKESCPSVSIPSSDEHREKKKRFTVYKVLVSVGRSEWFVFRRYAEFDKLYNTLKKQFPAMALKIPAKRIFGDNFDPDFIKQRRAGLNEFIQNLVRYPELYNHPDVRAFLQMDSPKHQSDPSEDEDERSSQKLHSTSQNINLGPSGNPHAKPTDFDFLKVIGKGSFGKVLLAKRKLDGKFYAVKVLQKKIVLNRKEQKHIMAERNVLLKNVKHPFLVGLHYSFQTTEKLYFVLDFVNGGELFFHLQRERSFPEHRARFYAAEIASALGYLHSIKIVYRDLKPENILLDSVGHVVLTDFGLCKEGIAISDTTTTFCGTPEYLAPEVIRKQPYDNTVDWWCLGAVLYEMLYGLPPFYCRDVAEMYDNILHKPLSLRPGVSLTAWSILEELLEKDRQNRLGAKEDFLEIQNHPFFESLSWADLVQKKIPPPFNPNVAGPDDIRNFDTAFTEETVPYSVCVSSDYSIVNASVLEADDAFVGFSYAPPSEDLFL

[7] = molecular target: Cyclin-dependent kinase 4/cyclin D1 (Homo sapiens) (UniProt P11802+P24385); assay: Inhibition of human CDK4/cyclin D1 using RB Protein as substrate at 1 uM in presence of 32P-ATP by Hotspot assay relative to control; values are per cent of control
[8] = molecular target: T3, Mitogen-activated protein kinase kinase kinase 7 (Homo sapiens) (UniProt O43318); assay: Inhibition of human TAK1 using casein as substrate at 1 uM in presence of 32P-ATP by Hotspot assay relative to control; values are per cent of control
T3 sequence (whole entry): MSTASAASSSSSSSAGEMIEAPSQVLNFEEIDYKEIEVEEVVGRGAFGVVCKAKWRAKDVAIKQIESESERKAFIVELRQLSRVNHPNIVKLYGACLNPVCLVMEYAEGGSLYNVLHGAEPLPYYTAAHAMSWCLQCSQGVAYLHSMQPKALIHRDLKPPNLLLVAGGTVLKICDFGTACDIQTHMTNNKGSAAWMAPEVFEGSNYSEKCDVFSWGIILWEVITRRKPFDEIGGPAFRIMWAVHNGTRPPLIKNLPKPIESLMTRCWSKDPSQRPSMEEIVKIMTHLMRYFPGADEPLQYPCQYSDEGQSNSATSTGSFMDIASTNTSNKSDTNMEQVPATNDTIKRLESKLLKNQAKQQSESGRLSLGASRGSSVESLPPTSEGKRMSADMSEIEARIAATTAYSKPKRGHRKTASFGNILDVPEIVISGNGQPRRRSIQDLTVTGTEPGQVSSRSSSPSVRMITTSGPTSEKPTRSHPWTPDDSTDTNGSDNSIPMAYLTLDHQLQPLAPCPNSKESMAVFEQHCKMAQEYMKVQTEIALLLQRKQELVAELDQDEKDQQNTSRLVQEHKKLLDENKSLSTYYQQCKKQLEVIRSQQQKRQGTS

[9] = molecular target: Glycogen synthase kinase-3 beta (Homo sapiens) (UniProt P49841); assay: Inhibition of human GSK3b using YRRAAVPPSPSLSRHSSPHQ(pS)EDEEE as substrate at 1 uM in presence of 32P-ATP by Hotspot assay relative to control; values are per cent of control
Glycogen synthase kinase-3 beta (Homo sapiens), sequence (P49841 whole entry, looked up): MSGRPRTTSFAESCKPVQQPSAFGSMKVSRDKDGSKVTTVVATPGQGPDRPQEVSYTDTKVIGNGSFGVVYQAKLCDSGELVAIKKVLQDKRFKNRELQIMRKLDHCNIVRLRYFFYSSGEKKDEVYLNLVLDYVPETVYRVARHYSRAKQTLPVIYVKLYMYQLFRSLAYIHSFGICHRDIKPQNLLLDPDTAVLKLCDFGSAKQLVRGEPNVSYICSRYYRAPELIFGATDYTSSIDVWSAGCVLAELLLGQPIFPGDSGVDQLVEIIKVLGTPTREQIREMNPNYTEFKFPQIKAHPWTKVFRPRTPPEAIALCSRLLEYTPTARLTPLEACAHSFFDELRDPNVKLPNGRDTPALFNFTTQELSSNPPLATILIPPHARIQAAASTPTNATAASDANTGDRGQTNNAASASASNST

Receptor tyrosine-protein kinase erbB-2 (Homo sapiens), sequence (P04626 whole entry): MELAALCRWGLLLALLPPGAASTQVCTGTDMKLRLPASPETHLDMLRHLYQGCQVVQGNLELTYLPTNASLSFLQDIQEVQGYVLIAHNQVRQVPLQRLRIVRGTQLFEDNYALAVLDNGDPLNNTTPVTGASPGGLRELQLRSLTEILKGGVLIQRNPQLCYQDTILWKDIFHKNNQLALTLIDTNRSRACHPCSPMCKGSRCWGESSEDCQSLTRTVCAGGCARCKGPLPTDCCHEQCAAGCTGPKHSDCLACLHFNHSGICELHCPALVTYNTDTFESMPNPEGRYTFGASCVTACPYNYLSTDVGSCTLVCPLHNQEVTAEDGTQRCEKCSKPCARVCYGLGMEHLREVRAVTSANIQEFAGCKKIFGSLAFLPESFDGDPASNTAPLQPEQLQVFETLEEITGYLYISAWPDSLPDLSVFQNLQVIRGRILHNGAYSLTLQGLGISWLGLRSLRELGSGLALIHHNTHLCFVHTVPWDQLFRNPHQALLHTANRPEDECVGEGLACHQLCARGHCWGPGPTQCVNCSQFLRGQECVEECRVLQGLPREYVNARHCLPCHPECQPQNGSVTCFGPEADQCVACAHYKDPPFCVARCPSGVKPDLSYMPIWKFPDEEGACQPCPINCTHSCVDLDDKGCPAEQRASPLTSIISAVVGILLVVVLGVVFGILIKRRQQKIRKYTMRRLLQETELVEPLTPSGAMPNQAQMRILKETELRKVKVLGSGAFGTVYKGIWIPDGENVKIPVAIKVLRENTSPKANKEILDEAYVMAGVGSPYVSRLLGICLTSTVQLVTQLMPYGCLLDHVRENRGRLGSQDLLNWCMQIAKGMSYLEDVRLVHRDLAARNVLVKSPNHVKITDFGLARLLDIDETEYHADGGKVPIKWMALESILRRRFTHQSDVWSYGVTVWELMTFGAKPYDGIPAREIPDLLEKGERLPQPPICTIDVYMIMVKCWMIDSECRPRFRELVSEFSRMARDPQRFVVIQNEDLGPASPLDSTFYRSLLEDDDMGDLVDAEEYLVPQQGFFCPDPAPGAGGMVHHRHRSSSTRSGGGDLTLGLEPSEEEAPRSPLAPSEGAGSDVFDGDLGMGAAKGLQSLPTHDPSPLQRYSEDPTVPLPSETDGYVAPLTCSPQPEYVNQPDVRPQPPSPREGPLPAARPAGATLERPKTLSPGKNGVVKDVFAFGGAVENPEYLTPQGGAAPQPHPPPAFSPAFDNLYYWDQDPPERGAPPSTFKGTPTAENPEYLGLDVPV
Serine/threonine-protein kinase WNK3 (Homo sapiens), sequence (Q9BYP7 whole entry): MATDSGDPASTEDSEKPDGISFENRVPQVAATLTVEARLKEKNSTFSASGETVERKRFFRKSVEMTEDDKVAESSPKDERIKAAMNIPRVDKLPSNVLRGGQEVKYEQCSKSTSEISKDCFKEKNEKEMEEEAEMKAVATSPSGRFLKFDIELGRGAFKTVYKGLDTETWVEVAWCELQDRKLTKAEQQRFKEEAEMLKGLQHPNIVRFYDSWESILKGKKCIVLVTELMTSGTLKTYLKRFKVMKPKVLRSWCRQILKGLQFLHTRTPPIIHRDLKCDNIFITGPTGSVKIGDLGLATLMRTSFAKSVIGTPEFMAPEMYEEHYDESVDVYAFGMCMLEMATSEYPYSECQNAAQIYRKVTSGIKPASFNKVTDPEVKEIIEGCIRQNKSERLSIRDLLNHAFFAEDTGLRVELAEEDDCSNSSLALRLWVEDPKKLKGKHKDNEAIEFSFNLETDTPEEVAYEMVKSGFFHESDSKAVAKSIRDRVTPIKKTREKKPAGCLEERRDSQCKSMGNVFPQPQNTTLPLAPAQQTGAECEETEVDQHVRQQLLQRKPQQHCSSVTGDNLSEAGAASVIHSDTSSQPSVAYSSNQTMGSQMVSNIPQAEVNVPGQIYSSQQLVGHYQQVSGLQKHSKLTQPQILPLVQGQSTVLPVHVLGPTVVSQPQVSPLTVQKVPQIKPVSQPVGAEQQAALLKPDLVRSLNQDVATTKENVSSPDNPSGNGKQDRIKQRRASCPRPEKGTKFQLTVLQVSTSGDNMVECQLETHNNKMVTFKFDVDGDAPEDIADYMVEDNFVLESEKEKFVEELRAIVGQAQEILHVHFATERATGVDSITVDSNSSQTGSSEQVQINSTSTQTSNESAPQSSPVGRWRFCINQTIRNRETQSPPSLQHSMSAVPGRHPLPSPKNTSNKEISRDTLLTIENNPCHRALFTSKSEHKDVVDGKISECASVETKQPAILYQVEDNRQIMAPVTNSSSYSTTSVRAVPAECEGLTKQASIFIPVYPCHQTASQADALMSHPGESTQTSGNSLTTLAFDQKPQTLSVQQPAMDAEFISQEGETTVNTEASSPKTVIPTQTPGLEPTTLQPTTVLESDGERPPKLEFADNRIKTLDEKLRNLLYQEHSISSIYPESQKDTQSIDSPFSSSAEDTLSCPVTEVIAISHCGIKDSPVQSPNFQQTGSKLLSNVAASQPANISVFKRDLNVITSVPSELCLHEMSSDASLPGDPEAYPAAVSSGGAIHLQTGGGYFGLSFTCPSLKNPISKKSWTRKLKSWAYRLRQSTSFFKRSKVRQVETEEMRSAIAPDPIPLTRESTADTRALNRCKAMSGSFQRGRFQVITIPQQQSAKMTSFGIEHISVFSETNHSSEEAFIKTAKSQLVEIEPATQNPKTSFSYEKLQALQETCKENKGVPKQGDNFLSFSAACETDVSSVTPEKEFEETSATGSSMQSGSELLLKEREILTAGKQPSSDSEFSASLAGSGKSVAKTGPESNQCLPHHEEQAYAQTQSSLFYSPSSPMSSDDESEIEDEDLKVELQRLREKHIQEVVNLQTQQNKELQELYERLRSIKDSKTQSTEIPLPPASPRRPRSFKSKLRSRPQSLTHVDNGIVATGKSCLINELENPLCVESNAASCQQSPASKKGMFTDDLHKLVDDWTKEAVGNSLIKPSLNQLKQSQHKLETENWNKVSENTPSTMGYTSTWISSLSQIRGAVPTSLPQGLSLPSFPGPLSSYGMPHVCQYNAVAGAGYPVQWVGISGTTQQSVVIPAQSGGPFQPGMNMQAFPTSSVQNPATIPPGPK
Mitogen-activated protein kinase kinase kinase 14 (Homo sapiens), sequence (Q99558 whole entry, looked up): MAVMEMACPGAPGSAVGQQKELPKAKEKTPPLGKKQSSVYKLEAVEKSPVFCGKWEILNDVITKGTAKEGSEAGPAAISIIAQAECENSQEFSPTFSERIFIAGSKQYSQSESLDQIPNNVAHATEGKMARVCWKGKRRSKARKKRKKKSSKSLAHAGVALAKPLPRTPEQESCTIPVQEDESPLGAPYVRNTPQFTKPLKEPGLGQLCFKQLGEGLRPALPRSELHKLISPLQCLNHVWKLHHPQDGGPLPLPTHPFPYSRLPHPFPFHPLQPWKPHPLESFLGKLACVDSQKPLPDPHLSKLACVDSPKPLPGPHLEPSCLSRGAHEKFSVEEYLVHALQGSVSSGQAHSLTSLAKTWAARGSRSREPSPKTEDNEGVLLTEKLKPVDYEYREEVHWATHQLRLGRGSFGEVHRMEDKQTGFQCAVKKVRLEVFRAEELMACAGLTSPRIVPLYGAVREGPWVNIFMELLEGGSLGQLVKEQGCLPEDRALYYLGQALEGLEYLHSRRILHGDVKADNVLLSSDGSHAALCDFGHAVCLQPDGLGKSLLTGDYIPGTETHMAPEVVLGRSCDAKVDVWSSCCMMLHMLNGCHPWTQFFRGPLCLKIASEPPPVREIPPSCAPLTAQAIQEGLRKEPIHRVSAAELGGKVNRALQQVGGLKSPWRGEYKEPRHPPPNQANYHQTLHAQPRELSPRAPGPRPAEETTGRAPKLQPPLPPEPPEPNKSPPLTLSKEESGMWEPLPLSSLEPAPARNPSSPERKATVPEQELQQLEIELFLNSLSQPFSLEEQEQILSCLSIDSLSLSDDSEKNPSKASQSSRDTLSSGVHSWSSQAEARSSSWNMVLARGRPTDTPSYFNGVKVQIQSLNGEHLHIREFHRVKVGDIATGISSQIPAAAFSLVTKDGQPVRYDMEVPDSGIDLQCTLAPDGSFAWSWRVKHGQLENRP
Myosin light chain kinase 2, skeletal/cardiac muscle (Homo sapiens), sequence (Q9H1R3 whole entry): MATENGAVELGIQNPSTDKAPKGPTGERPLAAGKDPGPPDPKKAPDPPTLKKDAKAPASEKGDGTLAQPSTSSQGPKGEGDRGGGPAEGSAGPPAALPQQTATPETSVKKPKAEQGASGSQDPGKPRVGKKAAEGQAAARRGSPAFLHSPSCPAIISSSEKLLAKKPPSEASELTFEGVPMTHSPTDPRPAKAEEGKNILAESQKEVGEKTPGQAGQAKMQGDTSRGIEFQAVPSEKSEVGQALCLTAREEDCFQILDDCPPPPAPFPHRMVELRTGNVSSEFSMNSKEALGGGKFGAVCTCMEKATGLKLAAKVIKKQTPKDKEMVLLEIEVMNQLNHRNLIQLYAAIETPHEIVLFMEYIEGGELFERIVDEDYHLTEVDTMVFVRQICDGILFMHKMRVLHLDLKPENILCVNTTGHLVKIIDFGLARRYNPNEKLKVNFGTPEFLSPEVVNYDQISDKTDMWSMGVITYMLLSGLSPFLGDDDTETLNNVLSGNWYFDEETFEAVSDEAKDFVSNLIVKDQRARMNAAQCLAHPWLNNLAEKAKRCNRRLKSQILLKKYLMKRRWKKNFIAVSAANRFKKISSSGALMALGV

SMILES	residual activity [1] [%]	residual activity [2] [%]	residual activity [3] [%]	residual activity [4] [%]	residual activity [5] [%]	residual activity [6] [%]	residual activity [7] [%]	residual activity [8] [%]	residual activity [9] [%]
Cc1cc(-c2cnc(N)c3c(-c4ccc5scnc5c4)csc23)n(C)n1	88.8	88.1	83	92.9	92.3	97.9	105	96.2	93.2
CC(C)S(=O)(=O)c1ccc2nccc(Nc3ccc4scnc4c3)c2c1	102	94.8	104	89.5	85	106	95.2	97.6	83.8
CNC(=O)c1ccc2c(c1)ncn2-c1ccc(CC(=O)OC(C)(C)C)cc1	98.7	88.9	99.9	95.3	100	96.7	96.8	106	65.2
